Assay results reported in ChEMBL document CHEMBL1275472, “Cell-penetrating peptide TP10 shows broad-spectrum activity against both Plasmodium falciparum and Trypanosoma brucei brucei” (Antimicrob Agents Chemother, 2008).
Active and inactive are the calls of the source. The calls are words filed in the database; no cut-off is given here.

How the values were obtained:
Plasmodium falciparum [1] = assay: Antiplasmodial activity against asynchronous blood-stage Plasmodium falciparum HB3 infected in human RBC at 30 uM after 24 hrs by Malstat assay; type: functional, organism-based
Plasmodium falciparum [2] = assay: Antiplasmodial activity against Plasmodium falciparum 3D7 clone infected in Anopheles gambiae Keele vector assessed as prevalence of […] infection at 30 uM; type: functional
Plasmodium falciparum [3] = assay: Antiplasmodial activity against asynchronous blood-stage Plasmodium falciparum HB3 infected in human RBC at 30 uM after 24 hrs by microscopy; type: functional, organism-based
Plasmodium falciparum [4] = assay: Antiplasmodial activity against asynchronous blood-stage Plasmodium falciparum HB3 infected in human RBC at 30 uM after 15 hrs by Malstat assay; type: functional, organism-based
[5] = test system: Trypanosoma brucei brucei; assay: […] activity against bloodstream form of Trypanosoma brucei 427; type: functional, organism-based
[6] = test system: Trypanosoma brucei brucei; assay: Trypanocidal activity against bloodstream form of Trypanosoma brucei brucei 427 assessed as lysis half-time at 5.4 uM by alamar blue assay; type: functional, organism-based
Plasmodium falciparum [7] = assay: Antiplasmodial activity against asynchronous blood-stage Plasmodium falciparum HB3 infected in human RBC at 30 uM after 18 hrs by Malstat assay; type: functional, organism-based
Homo sapiens = species: Homo sapiens; assay: Toxicity in human RBC assessed as induction of hemolysis at 1 to 30 uM
Plasmodium falciparum [8] = assay: Antiplasmodial activity against asynchronous blood-stage Plasmodium falciparum HB3 infected in human RBC at 30 uM after 21 hrs by Malstat assay; type: functional, organism-based

H-LLIILRRRIRKQAHAHSK-OH
Activity (Plasmodium falciparum [1]): inactive | Activity (Plasmodium falciparum [2]): 44% | Activity (Plasmodium falciparum [3]): inactive

CC[C@H](C)[C@H](NC(=O)[C@H](CCCCN)NC(=O)[C@H](CCCCN)NC(=O)[C@H](C)NC(=O)[C@H](CC(C)C)NC(=O)[C@H](C)NC(=O)[C@H](C)NC(=O)[C@H](CC(C)C)NC(=O)[C@H](C)NC(=O)[C@H](CCCCN)NC(=O)[C@H](CC(C)C)NC(=O)[C@H](CC(N)=O)NC(=O)[C@@H](NC(=O)[C@H](CCCCN)NC(=O)CNC(=O)[C@H](CC(C)C)NC(=O)[C@H](CC(C)C)NC(=O)[C@H](Cc1ccc(O)cc1)NC(=O)CNC(=O)[C@H](C)N)[C@@H](C)CC)C(=O)N[C@@H](CC(C)C)C(=O)O
Activity (Plasmodium falciparum [1]): Active | Activity (Plasmodium falciparum [4]): Active | Activity (Plasmodium falciparum [2]): 30% | IC50 [5]: 2.7 µM | Activity [6]: Active | Activity (Plasmodium falciparum [3]): Active | Activity (Plasmodium falciparum [7]): Active | Activity (Homo sapiens): Non-toxic | Activity (Plasmodium falciparum [8]): Active
